# Results published in patent publication US10981927B2, “Bioactive compounds” (priority 2014, dated 2021).
# Read-outs that look alike come from different tables or passages of the source.
# Legend:
# [1] = acute toxicity in mice by intraperitoneal injection; assay type: in vivo; conditions: mouse, in vivo, ip, intraperitoneal injection
# Description: (§1) No effects were recorded at 500 or 700 μg/kg. […] Furthermore, the onset of symptoms of toxicity was much slower with the compound I than with other cyclic imines. Structure-activity relationships among cyclic imines, both in terms of acute toxicity and effects on neuromuscular transmission, point to the importance of the imine moiety in the mode of action (Munday (2008)). […] This toxicity profile prompted further investigations into the use of the compound I as an anticancer therapeutic or synergist for Bcl-2 antagonists such as the compound designated ABT-737: […]
# mice [2] = experiment: as above; assay type: in vivo
# Description: as §1
# P388 cells = experiment: in vitro dose-response (toxicity) against P388 cells; assay type: cell-based
# Description: (§2) FIG. 2. Dose response curves for the compound I designated portimine against P388 (▴) and Vero (▪) cells over 72 hours exposure.
# as §1
# Vero cells = experiment: in vitro dose-response (toxicity) against Vero cells; assay type: cell-based
# Description: as §2, §1
# caspase-3 in P388 cells = experiment: activation of caspase-3 in P388 cells; assay type: cell-based; conditions: after 12 hours of exposure
# Description: as §1
# Jurkat T-lymphoma cells = experiment: viability assay (propidium iodide, flow cytometry), Jurkat cells; conditions: for CC50: Homo sapiens, Jurkat, 48 h; for cytotoxicity: Jurkat cells, 48 hours, over the concentration range tested
# Description: (§3) Jurkat T-lymphocyte-like, pro-myelocytic HL60 and erythroleukemic K562 cell lines were obtained from the American Type Culture Collection (ATCC, Rockville, Md., USA). The B9 Jurkat cell clone that overexpresses Bcl-2 was previously generated and characterised (Thomson et al (2005)). Jurkat and HL60 cells were grown in culture using RPMI 1640 media supplemented with 10% FBS, 100 units/mL penicillin and 100 μg/mL streptomycin at 37° C. in a humidified atmosphere with 5% CO2. K562 cells were grown in culture using Iscoves DMEM media supplemented with 10% FBS, 100 units/mL penicillin and 100 μg/mL streptomycin at 37° C. in a humidified atmosphere with 5% CO2.
# (§4) All cells were treated at 1×10^6 per mL in media. Fresh stock solutions of ABT-737 were prepared in sterile DMSO and stored at −20° C. Stock solutions of 50 mM were then further diluted with DMSO and added to cells, maintaining the final concentration of DMSO constant at 0.1%. Jurkat and K562 cells were treated with 200 nM ABT-737, HL60 cells were treated with 50 nM ABT-737. Stocks of the compound I, pinnatoxin F and pinnatoxin G (1000×) were prepared in sterile DMSO and stored at −20° C. Concentrations were calculated using molecular weights of 401 (the compound I), 764 (pinnatoxin F) and 693 (pinnatoxin G). The final concentration of DMSO was kept constant at 0.1%.
# (§5) Integrity of cell plasma membranes was assessed using propidium iodide (PI) staining at 48 hours. Cells (0.2×10^6) were loaded with 1 μg of propidium iodide (1 μL of a 1 mg/mL stock in water per 200 μL of cells). PI uptake by non-viable (stained, PI positive) cells was measured using the FC500 MPL Flow Cytometry system (Beckman Coulter Inc.). Viable cells were defined as PI-negative cells expressed as a percentage of the 10,000 cells analysed.
# [3] = tested on: Bcl-2 overexpressing Jurkat cells (B9 clone); experiment: cells
# Description: as §3, §4, §5
# HL60 cells = experiment: viability assay (propidium iodide, flow cytometry), HL60 cells; conditions: for CC50: Homo sapiens, HL-60, 48 h
# Description: as §3, §4, §5
# K562 cells = experiment: viability assay (propidium iodide, flow cytometry), K562 cells
# Description: as §3
# All cells were treated at 1×10^6 per mL in media. Fresh stock solutions of ABT-737 were prepared in sterile DMSO and stored at −20° C. Stock solutions of 50 mM were then further diluted with DMSO and added to cells, maintaining the final concentration of DMSO constant at 0.1%. […] Concentrations were calculated using molecular weights of 401 (the compound I), 764 (pinnatoxin F) and 693 (pinnatoxin G). […]
# as §5, with “Cells (0.2×10^6) were loaded with 1 μg of propidium iodide (1 μL of a 1 mg/mL stock in water per 200 μL of cells).” left out
# [4] = tested on: Caspase-3-like DEVDase activity in wild-type Jurkat cells; experiment: caspase assay (DEVD-AMC), wild-type Jurkat cells; assay type: cell-based, human
# Description: (§6) Six hours after treatment 1×10^6 cells were harvested and stored as cell pellets at −80° C. Cell pellets were resuspended in 15 μL PBS, transferred to a 96-well fluorescent plate, and 95 μL buffer (100 mM HEPES, 10% sucrose, 5 mM DTT, 0.1% NP-40 and 0.1% CHAPS at pH 7.25) containing 50 μM DEVD-AMC. The rate of release of fluorescent AMC was monitored at 37° C. (λex 390 nm, λem 460 nm). Data are expressed as a fold increase in activity over vehicle-treated cells incubated for the same time.
# [5] = tested on: Caspase-3-like DEVDase activity in Bcl-2 overexpressing Jurkat cells; experiment: caspase assay (DEVD-AMC), Bcl-2 overexpressing Jurkat cells; assay type: cell-based, human
# Description: as §6
# Jurkat cells = experiment: phosphatidylserine assay (Annexin V-FITC / propidium iodide), Jurkat cells; assay type: cell-based, human
# Description: Phosphatidylserine (PS) becomes exposed on the outer leaflet of the plasma membrane during apoptosis. PS binds strongly with Annexin-V, which when labelled with a fluorescent probe such as fluorescein isothiocyanate (FITC), allows the detection of cells undergoing apoptosis. Treated cells (0.1×10^6) were harvested and centrifuged at 10,000×g for 1 minute. The supernatant was removed and cells were resuspended in 100 μL Annexin-V Binding Buffer (10 mM HEPES pH 7.4, 140 mM NaCl, 2.5 mM CaCl2). Cells were stained by adding 1 μL Annexin-V FITC conjugate, and then incubated in the dark at room temperature for 15 minutes. […] Viable cells (PI negative) that stained with Annexin-V FITC were termed PS positive.
# mice [6] = conditions: cited from earlier work; for LD50 reported for other cyclic imines: intraperitoneal injection
smiles,measurement,setting,value
"C=CC1=C[C@@H]2[C@@H]3O[C@]4(CC[C@H](O4)[C@@H](C)C[C@@H](O)C3=O)C[C@H](O)C3=NCC[C@@]32CC1 (relative stereo) [compound I, (4R,6S,9R,10R,12S,14R,14aR,18aS)-rel-16-ethenyl-1,2,4,5,7,8,9,10,11,12, 14,14a,17,18-tetradecahydro-4,12-dihydroxy-10-methyl-)13H-6,9:6,14-diepoxybenzo[2,3]cyclotetradeca[1,2-b]pyrrol-13-one]",LD50,[1],1.57 mg/kg
same,onset of symptoms of toxicity,mice [2]; compared with other cyclic imines,much slower
same,effects recorded at sublethal doses,"mice [2]; intraperitoneal injection, 500 or 700 μg/kg",No effects
same,EC50,"P388 cells; Mus musculus, P388 cells, 72 hours exposure",2.7 nM
same,cells killed,"P388 cells; P388 cells, 10 nM, 72 hours of exposure",> 90%
same,cells killed,"Vero cells; 10 nM, 72 hours of exposure",> 90%
same,EC50,"Vero cells; Chlorocebus sabaeus, 72 hours exposure",3 nM
same,activation of caspase-3,caspase-3 in P388 cells,observed
same,CC50,"Jurkat T-lymphoma cells; read-out: LC50, Jurkat cells, 48 hours, without ABT-737",6 nM
same,CC50,"Jurkat T-lymphoma cells; read-out: LC50, wild-type Jurkat cells, 48 hours, with 200 nM ABT-737",1.4 nM
same,CC50,"[3]; Homo sapiens, Jurkat, 48 h, read-out: LC50",2.4 nM
same,cell death,"[3]; Jurkat cells overexpressing Bcl-2, 48 hours, without ABT-737, up to highest concentrations tested",unable to trigger cell death
same,CC50,"HL60 cells; read-out: LC50, HL60 cells, 48 h, with 50 nM ABT-737",0.8 nM
same,CC50,"HL60 cells; read-out: LC50, HL60 cells, 48 h, without ABT-737",34 nM
same,CC50,"K562 cells; Homo sapiens, K562, 48 h, read-out: LC50",6.7 nM
same,sensitivity of K562 cells,"K562 cells; K562 cells, 48 h, without ABT-737",relatively resistant
same,caspase activity time course,"[4]; Jurkat cells, 50 nM portimine",steady increase in caspase activity over the 5 hours
same,caspase activation,"[4]; wild-type Jurkat cells, increasing concentrations, 6 hours",dose-dependent increase
same,increase in caspase activity,[5]; 50 nM portimine in combination with 200 nM ABT-737,60 fold
same,caspase activity,"[5]; any concentration, 6 hours",no caspase activity
same,time at which annexin V positive cells are evident,Jurkat cells; 50 nM portimine,2 h
same,cells annexin V positive,Jurkat cells; 6 hours,up to 50%
same,necrosis,Jurkat cells; annexin V / propidium iodide staining,no indication of significant necrosis
"CN(C)CC[C@H](CSc1ccccc1)Nc1ccc(S(=O)(=O)NC(=O)c2ccc(N3CCN(Cc4ccccc4-c4ccc(Cl)cc4)CC3)cc2)cc1[N+](=O)[O-] [ABT-737, 4-[4-[(4′-chloro[1,1′-biphenyl]-2-yl)methyl]-1-piperazinyl]-N-[[4-[[(1R)-3-(dimethylamino)-1-[(phenylthio)methyl]propyl]amino]-3-nitrophenyl]sulfonyl]-benzamide, reference compound]",direct cytotoxicity,[3],not directly cytotoxic
same,sensitivity of HL60 cells,"HL60 cells; HL60 cells, ABT-737 alone",particularly sensitive
C=C1CCCC2=NCC(C)C(C)CC23CCC(C2C=C(C)C(=O)O2)=C(C)C3/C=C(/C)C(O)CC2CCC3(CCC4(OC(CCC4(C)O)C1)O3)O2 (centres unmarked) [desmethyl spirolide C],LD50 reported for other cyclic imines,mice [6],0.0069 mg/kg
CC1=C[C@@H](C2=C(C)[C@@H]3/C=C(\C)[C@@H](O)CC[C@@H]4C[C@@H](C)[C@@H](O4)/C(C)=C/CCC4=NCCC[C@@]43CC2)OC1=O [gymnodimine],LD50 reported for other cyclic imines,mice [6],0.096 mg/kg
"C=C1CCCC2=NC[C@H](C)[C@@H](C)C[C@@]23CCC([C@@H]2CCC(=O)O2)=C[C@@H]3[C@@H]2O[C@@]3(C[C@@H](C)C[C@H]2O3)C[C@@H]2O[C@]3(CC[C@@]4(O[C@@H](CC[C@@]4(C)O)C1)O3)C[C@H](C)[C@@H]2O [pinnatoxin F, reference compound]",EC50,P388 cells; P388 cells in vitro,> 1000 nM
same,cytotoxicity,Jurkat T-lymphoma cells,little cytotoxicity
same,LD50 reported for other cyclic imines,mice [6],0.016 mg/kg
"C=CC1=C[C@@H]2[C@@H]3O[C@]4(C[C@H]5CCC[C@@]6(CC[C@@]7(O[C@@H](CC[C@@]7(C)O)CC(=C)CCCC7=NC[C@H](C)[C@@H](C)C[C@@]72CC1)O6)O5)C[C@@H](C)[C@@H](O)[C@H]3O4 [pinnatoxin G, reference compound]",cytotoxicity,Jurkat T-lymphoma cells,little cytotoxicity
C=C1CCCC2=NC[C@H](C)[C@@H](C)C[C@@]23CCC([C@@H]2C=C(C)C(=O)O2)=C(C)[C@@H]3/C=C(\C)[C@@H](O)C[C@H]2O[C@@]3(C[C@H]2C)O[C@@H](CC[C@@]3(C)O)C1 [spirolide H],toxicity to mice relative to the compound I,mice [6]; Roach et al (2009),even less toxic to mice than the compound I
